{"source": "patent US7718687B2", "about": "“Prodrugs of mitotic kinesin inhibitors” (Merck Sharp & Dohme Corp.,, priority 2004, dated 2010)", "biological_target": "T1, human KSP motor domain (KSP(367H)) (Homo sapiens, UniProt P52732)", "T1 construct": "were used to amplify the motor domain and the neck linker region; made in house; host or cells: E. coli BL21 (DE3), vector pRSETa", "T1 sequence (P52732 18-359 limits assumed)": "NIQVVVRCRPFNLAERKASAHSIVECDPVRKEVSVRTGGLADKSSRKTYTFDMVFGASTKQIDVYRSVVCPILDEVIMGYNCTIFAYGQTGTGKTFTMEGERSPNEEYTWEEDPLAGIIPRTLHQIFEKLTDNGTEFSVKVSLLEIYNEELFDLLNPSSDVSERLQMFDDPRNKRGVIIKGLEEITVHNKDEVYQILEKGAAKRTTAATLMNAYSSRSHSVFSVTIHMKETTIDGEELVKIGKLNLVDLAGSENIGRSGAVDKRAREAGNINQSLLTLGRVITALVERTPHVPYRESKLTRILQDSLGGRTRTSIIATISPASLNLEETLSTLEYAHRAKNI", "experiment": "Kinesin ATPase In Vitro Assay", "format": "biochemical", "conditions": "enantiomers of 1-5 resolved on Chiralpak AD; assay not stated", "source_text": "I. Kinesin ATPase In Vitro Assay\nCloning and Expression of Human Poly-Histidine Tagged KSP Motor Domain (KSP(367H))\nPlasmids for the expression of the human KSP motor domain construct were cloned by PCR using a pBluescript full length human KSP construct (Blangy et al., Cell, vol. 83, pp 1159-1169, 1995) as a template. The N-terminal primer 5′-[…] (SEQ.ID.NO.: 1) and the C-terminal primer 5′-[…] […] (SEQ.ID.NO.: 2) were used to amplify the motor domain and the neck linker region. The PCR products were digested with AseI and XhoI, ligated into the NdeI/XhoI digestion product of pRSETa (Invitrogen) and transformed into E. coli BL21 (DE3).\nCells were grown at 37° C. to an OD600 of 0.5. […]\nThe kinesin motor domain is incubated with microtubules, 1 mM ATP (1:1 MgCl2: Na-ATP), and compound at 23° C. in buffer containing 80 mM K-HEPES (pH 7.0), 1 mM EGTA, 1 mM DTT, 1 mM MgCl2, and 50 mM KCl. […] Free phosphate from the ATP hydrolysis reaction is measured via a quinaldine red/ammonium molybdate assay by adding a […] of quench C (e.g., to a mixture of 40 μl reaction volume+40 μl stop buffer is then added 120 μl quench C). […] Quench C is a 2:1 ratio of quench A:quench B The reaction is incubated for 5-10 minutes at 23° C., and the absorbance of the phospho-molybdate complex is measured at 540 nm."}
{"smiles": "CC(=O)N1N=C(c2cc(F)ccc2F)C[C@@]1(CCCO)c1ccccc1", "note": "(single isomer, unassigned; isomer 3) [(S) isomer]", "values": [{"measurement": "activity of resolved enantiomer (active / inactive)", "value": "active"}]}
